Laboratory results from patent US5840684A, “Glycopeptide antibiotic derivatives” (Eli Lilly and Company, priority 1995, dated 1998).
In brackets after ≈: the same amount, converted by molar mass.

What was measured:
Entercoccus faecium 2041 = experiment: broth micro-dilution MIC; assay type: cell-based; conditions: Entercoccus faecium 2041
Method: (§1) The formula I compounds have in vitro and in vivo activity against Gram-positive pathogenic bacteria. The MIC's were determined using a standard broth micro-dilution assay.

[1] = test system: Streptococcus pneumoniae P1; experiment: broth micro-dilution MIC; assay type: cell-based
Method: as §1

[2] = test system: Staphylococcus epidermidis 270; experiment: broth micro-dilution MIC; assay type: cell-based
Method: as §1

[3] = test system: Enterococcus gallinarum 245; experiment: broth micro-dilution MIC; assay type: cell-based; conditions: Enterococcus gallinarum 245
Method: as §1

[4] = test system: Staphylococcus haemolyticus 415; experiment: broth micro-dilution MIC; assay type: cell-based
Method: as §1

Streptococcus pyogenes = experiment: mouse protection, experimentally-induced infection; assay type: in vivo; conditions: mice infected with Streptococcus pyogenes, two doses
[5] = test system: vancomycin-susceptible enterococci; experiment: broth micro-dilution, mean geometric MIC; assay type: cell-based, Enterococcus faecium and Enterococcus faecalis; conditions: enterococci, 24-hour incubation
Streptococcus pneumoniae = experiment: mouse protection, experimentally-induced infection; assay type: in vivo; conditions: mice infected with Streptococcus pneumoniae, two doses
[6] = test system: vancomycin-resistant enterococci; experiment: broth micro-dilution, mean geometric MIC; assay type: cell-based, Enterococcus faecium and Enterococcus faecalis; conditions: enterococci, 24-hour incubation
[7] = test system: Staphylococcus aureus SA1199; experiment: broth micro-dilution MIC; assay type: cell-based
Method: (§2) The MIC's were determined using a standard broth micro-dilution assay.

[8] = test system: Entercoccus faecium 180-1; experiment: broth micro-dilution MIC; assay type: cell-based
Method: as §2

[9] = test system: Staphylococcus aureus X778; experiment: broth micro-dilution MIC; assay type: cell-based
Method: as §2

Entercoccus faecium 276 = experiment: broth micro-dilution MIC; assay type: cell-based
Method: as §2

[10] = test system: Staphylococcus aureus 447; experiment: broth micro-dilution MIC; assay type: cell-based
Method: as §2

[11] = test system: Staphylococcus aureus SA1199A; experiment: broth micro-dilution MIC; assay type: cell-based
Method: as §2

[12] = test system: Staphylococcus aureus S13E; assay type: cell-based
Method: as §2

Entercoccus faecium 180 = experiment: broth micro-dilution MIC; assay type: cell-based; conditions: Entercoccus faecium 180
Method: as §1

[13] = test system: Staphylococcus haemolyticus 105; experiment: broth micro-dilution MIC; assay type: cell-based
Method: as §1

[14] = test system: Streptococcus pyogenes C203; experiment: broth micro-dilution MIC; assay type: cell-based
Method: as §2

[15] = test system: Staphylococcus aureus 446; experiment: broth micro-dilution MIC; assay type: cell-based
Method: as §2

[16] = test system: Staphylococcus aureus X400; experiment: broth micro-dilution MIC; assay type: cell-based
Method: as §2

[17] = test system: Staphylococcus aureus SA1199B; assay type: cell-based
Method: as §2

[18] = test system: Staphylococcus aureus 489; experiment: broth micro-dilution MIC; assay type: cell-based
Method: as §2

SMILES | MIC (Entercoccus faecium 2041) | MIC [1] | MIC [2] | MIC [3] | MIC [4] | ED50 (Streptococcus pyogenes) | mean geometric MIC, Vancomycin Sensitive Strains [5] | ED50 (Streptococcus pneumoniae) | mean geometric MIC, Vancomycin Resistant Strains [6] | MIC [7] | MIC [8] | MIC [9] | MIC [10] | MIC [11] | MIC [12] | MIC (Entercoccus faecium 180) | MIC [13] | MIC [14] | MIC [16] | MIC [17] | further results
CNC(CC(C)C)C(=O)NC1C(=O)NC(CC(N)=O)C(=O)NC2C(=O)NC3C(=O)NC(C(=O)NC(C(=O)O)c4cc(O)cc(O)c4-c4cc3ccc4O)C(OC3CC(C)(N)C(O)C(C)O3)c3ccc(c(Cl)c3)Oc3cc2cc(c3OC2OC(CO)C(O)C(O)C2OC2CC(C)(NCc3ccc(-c4ccc([N+](=O)[O-])cc4)cc3)C(O)C(C)O2)Oc2ccc(cc2Cl)C1O (stereo not shown) [Compound 64] | ≤ 0.06 µg/mL | ≤ 0.06 µg/mL | 0.5 µg/mL (≈ 0.277 µM) | 2 µg/mL (≈ 1.11 µM) | 2 µg/mL (≈ 1.11 µM) | 0.044 mg/kg/2 | 0.077 µg/mL | < 0.031 mg/kg/2 | 0.71 µg/mL | 1 µg/mL (≈ 0.554 µM) | ≤ 0.06 µg/mL | 2 µg/mL (≈ 1.11 µM) | 0.5 µg/mL (≈ 0.277 µM) | ≤ 0.06 µg/mL | 2 µg/mL (≈ 1.11 µM) |  |  |  |  |  | MIC (Entercoccus faecium 276): 0.5 µg/mL (≈ 0.277 µM)
CN[C@H](CC(C)C)C(=O)N[C@H]1C(=O)N[C@@H](CC(N)=O)C(=O)N[C@H]2C(=O)N[C@H]3C(=O)N[C@H](C(=O)N[C@H](C(=O)O)c4cc(O)cc(O)c4-c4cc3ccc4O)[C@H](O[C@H]3C[C@](C)(N)[C@@H](O)[C@H](C)O3)c3ccc(c(Cl)c3)Oc3cc2cc(c3O[C@@H]2O[C@H](CO)[C@@H](O)[C@H](O)[C@H]2O[C@H]2C[C@](C)(NCc3ccc(OCc4ccc(Cl)cc4)cc3)[C@@H](O)[C@H](C)O2)Oc2ccc(cc2Cl)[C@H]1O [Compound 93] | ≤ 0.06 µg/mL | ≤ 0.06 µg/mL | 1 µg/mL (≈ 0.549 µM) | 1 µg/mL (≈ 0.549 µM) | 1 µg/mL (≈ 0.549 µM) | 0.074 mg/kg/2 | 0.042 µg/mL | 0.012 mg/kg/2 | 0.42 µg/mL | 2 µg/mL (≈ 1.1 µM) | ≤ 0.06 µg/mL | 1 µg/mL (≈ 0.549 µM) |  | ≤ 0.06 µg/mL | 1 µg/mL (≈ 0.549 µM) | ≤ 0.06 µg/mL | 1 µg/mL (≈ 0.549 µM) | ≤ 0.06 µg/mL | ≤ 0.06 µg/mL | 1 µg/mL (≈ 0.549 µM) | MIC [15]: 2 µg/mL (≈ 1.1 µM)
CCOc1cc(CNC2(C)CC(OC3C(Oc4c5cc6cc4Oc4ccc(cc4Cl)C(OC4CC(C)(N)C(O)C(C)O4)C4NC(=O)C(NC(=O)C6NC(=O)C(CC(N)=O)NC(=O)C(NC(=O)C(CC(C)C)NC)C(O)c6ccc(c(Cl)c6)O5)c5ccc(O)c(c5)-c5c(O)cc(O)cc5C(C(=O)O)NC4=O)OC(CO)C(O)C3O)OC(C)C2O)ccc1OCC1CCCCC1 (stereo not shown) [Compound 105] |  | ≤ 0.06 µg/mL |  | 1 µg/mL (≈ 0.544 µM) | 1 µg/mL (≈ 0.544 µM) | 0.12 mg/kg/2 | 0.062 µg/mL | 0.041 mg/kg/2 | 0.84 µg/mL | 1 µg/mL (≈ 0.544 µM) | ≤ 0.06 µg/mL | 0.5 µg/mL (≈ 0.272 µM) | 0.5 µg/mL (≈ 0.272 µM) |  | 0.5 µg/mL (≈ 0.272 µM) |  | 1 µg/mL (≈ 0.544 µM) | ≤ 0.06 µg/mL | 0.5 µg/mL (≈ 0.272 µM) | 0.5 µg/mL (≈ 0.272 µM) | MIC [18]: 0.5 µg/mL (≈ 0.272 µM)
CNC(CC(C)C)C(=O)NC1C(=O)NC(CC(N)=O)C(=O)NC2C(=O)NC3C(=O)NC(C(=O)NC(C(=O)O)c4cc(O)cc(O)c4-c4cc3ccc4O)C(OC3CC(C)(N)C(O)C(C)O3)c3ccc(c(Cl)c3)Oc3cc2cc(c3OC2OC(CO)C(O)C(O)C2OC2CC(C)(NCc3ccc(OCc4ccc([N+](=O)[O-])cc4)cc3)C(O)C(C)O2)Oc2ccc(cc2Cl)C1O (stereo not shown) [Compound 131] | ≤ 0.06 µg/mL | ≤ 0.06 µg/mL | 1 µg/mL (≈ 0.545 µM) | 2 µg/mL (≈ 1.09 µM) | 2 µg/mL (≈ 1.09 µM) | < 0.031 mg/kg/2 | 0.028 µg/mL | 0.077 mg/kg/2 | 0.84 µg/mL |  | ≤ 0.06 µg/mL | 0.5 µg/mL (≈ 0.273 µM) | 1 µg/mL (≈ 0.545 µM) | ≤ 0.06 µg/mL | 1 µg/mL (≈ 0.545 µM) | ≤ 0.06 µg/mL | 1 µg/mL (≈ 0.545 µM) | ≤ 0.06 µg/mL | 1 µg/mL (≈ 0.545 µM) | 1 µg/mL (≈ 0.545 µM) | MIC [18]: 1 µg/mL (≈ 0.545 µM); MIC [15]: 2 µg/mL (≈ 1.09 µM)
CNC(CC(C)C)C(=O)NC1C(=O)NC(CC(N)=O)C(=O)NC2C(=O)NC3C(=O)NC(C(=O)NC(C(=O)O)c4cc(O)cc(O)c4-c4cc3ccc4O)C(OC3CC(C)(N)C(O)C(C)O3)c3ccc(c(Cl)c3)Oc3cc2cc(c3OC2OC(CO)C(O)C(O)C2OC2CC(C)(NCc3ccc(-c4ccc(F)cc4)cc3)C(O)C(C)O2)Oc2ccc(cc2Cl)C1O (stereo not shown) [Compound 211] | ≤ 0.06 µg/mL | ≤ 0.06 µg/mL | 0.5 µg/mL (≈ 0.281 µM) | ≤ 0.06 µg/mL | 0.5 µg/mL (≈ 0.281 µM) | < 0.031 mg/kg/2 | 0.024 µg/mL | 0.041 mg/kg/2 | 0.35 µg/mL | 0.5 µg/mL (≈ 0.281 µM) | ≤ 0.06 µg/mL | 1 µg/mL (≈ 0.563 µM) | 0.5 µg/mL (≈ 0.281 µM) |  | 0.5 µg/mL (≈ 0.281 µM) | ≤ 0.06 µg/mL | 0.5 µg/mL (≈ 0.281 µM) | ≤ 0.06 µg/mL | 0.5 µg/mL (≈ 0.281 µM) | 1 µg/mL (≈ 0.563 µM) | MIC (Entercoccus faecium 276): ≤ 0.06 µg/mL; MIC [15]: 1 µg/mL (≈ 0.563 µM)
CN[C@H](CC(C)C)C(=O)N[C@H]1C(=O)N[C@@H](CC(N)=O)C(=O)N[C@H]2C(=O)N[C@H]3C(=O)N[C@H](C(=O)N[C@H](C(=O)O)c4cc(O)cc(O)c4-c4cc3ccc4O)[C@H](O[C@H]3C[C@](C)(N)[C@@H](O)[C@H](C)O3)c3ccc(cc3)Oc3cc2cc(c3O[C@@H]2O[C@H](CO)[C@@H](O)[C@H](O)[C@H]2O[C@H]2C[C@](C)(N)[C@@H](O)[C@H](C)O2)Oc2ccc(cc2Cl)[C@H]1O [Compound A82846A, A82846A, reference compound] | 0.125 µg/mL (≈ 0.0802 µM) |  |  | 0.125 µg/mL (≈ 0.0802 µM) | 1 µg/mL (≈ 0.642 µM) | 0.084 mg/kg/2 | 1.7 µg/mL | 0.39 mg/kg/2 |  | 0.125 µg/mL (≈ 0.0802 µM) | 0.125 µg/mL (≈ 0.0802 µM) | 0.125 µg/mL (≈ 0.0802 µM) |  | ≤ .06 µg/mL | 0.125 µg/mL (≈ 0.0802 µM) | 16 µg/mL (≈ 10.3 µM) | 0.5 µg/mL (≈ 0.321 µM) |  | 0.125 µg/mL (≈ 0.0802 µM) | ≤ .06 µg/mL | MIC [18]: 0.5 µg/mL (≈ 0.321 µM); MIC (Entercoccus faecium 276): 0.125 µg/mL (≈ 0.0802 µM)
